Measurements reported in patent US20230322846A9, “NEUROACTIVE STEROIDS AND THEIR METHODS OF USE” (SAGE THERAPEUTICS, INC., priority 2018, published 2023).

Assays:
[1] = target: [35S]-TBPS binding, rat brain cortical membranes; test: Steroid inhibition of [35S]-TBPS binding; settings: 3 nM [35S]-TBPS, in the presence of 5 mM GABA
Method in brief: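 In the presence of […], compounds (DMSO 0.5% final) competed with 3 nM [35S]-TBPS for Sprague-Dawley rat cortical membranes, pH 7.4 phosphate buffer, 90 min, room temperature. Filtration and scintillation counting; specific binding defined by […]; IC50 and maximal inhibition fitted per experiment, averaged as mean ± SEM.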

[2] = target: human GABAA receptors composed of the α1β2γ2 subunits (Homo sapiens (Human), UniProt P14867+P18507+P47870); test: α1β2γ2 SyncroPatch automated patch clamp assay; format: cell-based; settings: for EC50: HEK cells, potentiation of submaximal GABA current, clamped at −120 mV; for α1β2γ2 EMAX: peak current after GABA+compound divided by peak current after GABA alone
Protocol: (§1) The SyncroPatch 384PE (Nanion, Germany) automated patch clamp platform was used to obtain recordings from human embryonic kidney cells stably expressing human GABAA receptors composed of the α1β2γ2 and α4β3δ subunits. Cells were bathed in an extracellular solution containing: 140 mM NaCl, 4 mM KCl, 2 mM CaCl2), 1 mM MgCl2, 10 mM HEPES, 5 mM glucose and 0.1% DMSO. Solution was maintained at pH 7.4 with NaOH and 300 mOsm/L. Chips with multi-hole (4×) medium resistance (2-3M) are used for the recombinant cell line experiments. Once harvested, cells are stored in extracellular solution set to 10° C. in the cell hotel with a minimum shaking speed of 200 rpm before addition to the chip at the beginning of each experiment. Whole cell patch clamp recordings were made using an intracellular solution containing: 90 mM KCl, 50 mM KF, 1.5 mM MgCl2, 11.1 mM EGTA and 10 mM HEPES, 2 mM NaATP, maintained at pH 7.2 with KOH. Currents are leak corrected (using P/2 leak correction protocol) and sampled at 5 kHz. Cells were clamped at −120 mV. After establishing a stable baseline, a submaximal concentration of GABA (3-5 μM for cells expressing α1β2γ2 and 10 μM for cells expressing […]) was applied at a rate of 10 μl/second, immediately followed by application of GABA+compound (10 μl/second) at a single concentration of compound per cell. Compounds were tested at six concentrations (0.029, 0.12, 0.47, 1.88, 7.5, and 30 μM) in n=8-12 cells per concentration. Compound effect was determined by dividing peak current amplitude after GABA+compound by peak current amplitude after GABA alone. EC50 and Emax values were determined from average values for each concentration.

[3] = target: human GABAA receptors composed of the α4β3δ subunits (Homo sapiens (Human), UniProt O14764+P28472+P48169); test: α4β3δ SyncroPatch automated patch clamp assay; format: cell-based; settings: for EC50: HEK cells, potentiation of submaximal GABA current, clamped at −120 mV; for α4β3δ EMAX: peak current after GABA+compound divided by peak current after GABA alone
Protocol: as §1

human GABAA receptors composed of the α1β2γ2 subunits, sequence (P14867 28-456 limits assumed): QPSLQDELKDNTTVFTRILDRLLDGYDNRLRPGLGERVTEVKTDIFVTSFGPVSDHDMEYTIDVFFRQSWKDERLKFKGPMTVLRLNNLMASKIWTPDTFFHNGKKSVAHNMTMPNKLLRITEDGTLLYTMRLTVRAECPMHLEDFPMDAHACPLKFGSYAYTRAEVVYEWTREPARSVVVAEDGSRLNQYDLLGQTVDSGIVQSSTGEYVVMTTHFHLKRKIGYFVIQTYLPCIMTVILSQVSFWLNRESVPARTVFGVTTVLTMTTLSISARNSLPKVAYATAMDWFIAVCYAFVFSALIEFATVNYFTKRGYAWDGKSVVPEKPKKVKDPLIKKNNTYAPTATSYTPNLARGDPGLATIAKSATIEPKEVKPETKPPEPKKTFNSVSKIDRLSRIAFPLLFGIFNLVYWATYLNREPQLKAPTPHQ
human GABAA receptors composed of the α1β2γ2 subunits, sequence (P47870 25-512 limits assumed): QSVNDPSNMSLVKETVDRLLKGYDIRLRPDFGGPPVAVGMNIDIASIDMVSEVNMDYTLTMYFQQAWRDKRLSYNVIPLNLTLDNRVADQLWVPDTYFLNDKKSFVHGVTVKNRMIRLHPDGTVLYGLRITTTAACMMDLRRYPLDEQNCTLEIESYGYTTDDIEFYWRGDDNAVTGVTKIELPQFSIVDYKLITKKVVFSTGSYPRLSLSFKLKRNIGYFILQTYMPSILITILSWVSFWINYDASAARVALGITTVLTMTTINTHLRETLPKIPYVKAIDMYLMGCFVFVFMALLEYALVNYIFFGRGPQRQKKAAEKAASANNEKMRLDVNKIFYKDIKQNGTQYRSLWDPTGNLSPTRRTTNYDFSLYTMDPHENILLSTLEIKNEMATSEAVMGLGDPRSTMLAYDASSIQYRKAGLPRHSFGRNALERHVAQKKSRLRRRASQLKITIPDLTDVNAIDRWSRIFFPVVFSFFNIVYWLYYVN
human GABAA receptors composed of the α1β2γ2 subunits, sequence (P18507 40-475 limits assumed): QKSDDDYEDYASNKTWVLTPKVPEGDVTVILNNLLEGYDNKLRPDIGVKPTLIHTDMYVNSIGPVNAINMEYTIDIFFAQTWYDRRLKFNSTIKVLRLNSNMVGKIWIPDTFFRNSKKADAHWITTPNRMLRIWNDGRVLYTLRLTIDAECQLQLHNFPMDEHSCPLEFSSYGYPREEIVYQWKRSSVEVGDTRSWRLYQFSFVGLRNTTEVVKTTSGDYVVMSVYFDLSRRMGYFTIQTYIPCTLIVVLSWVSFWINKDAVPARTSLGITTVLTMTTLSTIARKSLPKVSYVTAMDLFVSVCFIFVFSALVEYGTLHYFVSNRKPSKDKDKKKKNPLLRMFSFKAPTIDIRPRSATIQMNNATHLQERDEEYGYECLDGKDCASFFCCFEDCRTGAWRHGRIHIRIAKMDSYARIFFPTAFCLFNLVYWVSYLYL
human GABAA receptors composed of the α4β3δ subunits, sequence (P48169 36-554 limits assumed): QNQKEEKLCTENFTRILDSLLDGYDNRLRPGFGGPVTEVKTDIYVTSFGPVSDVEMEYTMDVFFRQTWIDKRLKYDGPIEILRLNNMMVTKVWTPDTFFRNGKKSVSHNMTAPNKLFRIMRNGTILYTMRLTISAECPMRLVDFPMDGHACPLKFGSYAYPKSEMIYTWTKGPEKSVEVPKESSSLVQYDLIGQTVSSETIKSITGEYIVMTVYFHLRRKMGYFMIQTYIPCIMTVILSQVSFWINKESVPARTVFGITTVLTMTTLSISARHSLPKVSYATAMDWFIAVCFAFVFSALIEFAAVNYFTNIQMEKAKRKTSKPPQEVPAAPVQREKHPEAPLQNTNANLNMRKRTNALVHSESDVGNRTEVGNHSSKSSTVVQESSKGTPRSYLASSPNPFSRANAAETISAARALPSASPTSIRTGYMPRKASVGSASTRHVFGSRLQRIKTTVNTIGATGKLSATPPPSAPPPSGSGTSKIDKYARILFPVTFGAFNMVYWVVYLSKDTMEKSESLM
human GABAA receptors composed of the α4β3δ subunits, sequence (P28472 26-473 limits assumed): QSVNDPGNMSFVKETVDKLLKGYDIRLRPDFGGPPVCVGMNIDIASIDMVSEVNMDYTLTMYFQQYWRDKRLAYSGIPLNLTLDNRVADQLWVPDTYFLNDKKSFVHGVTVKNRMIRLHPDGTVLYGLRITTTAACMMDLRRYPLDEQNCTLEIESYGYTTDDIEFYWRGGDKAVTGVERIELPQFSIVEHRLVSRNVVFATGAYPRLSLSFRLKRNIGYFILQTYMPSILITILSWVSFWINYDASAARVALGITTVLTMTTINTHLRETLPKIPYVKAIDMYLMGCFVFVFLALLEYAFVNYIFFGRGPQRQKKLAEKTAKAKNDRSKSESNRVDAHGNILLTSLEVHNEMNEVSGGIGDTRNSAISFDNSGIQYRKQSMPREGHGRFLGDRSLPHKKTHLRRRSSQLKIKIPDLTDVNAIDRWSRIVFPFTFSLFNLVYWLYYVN
human GABAA receptors composed of the α4β3δ subunits, sequence (O14764 17-452 limits assumed): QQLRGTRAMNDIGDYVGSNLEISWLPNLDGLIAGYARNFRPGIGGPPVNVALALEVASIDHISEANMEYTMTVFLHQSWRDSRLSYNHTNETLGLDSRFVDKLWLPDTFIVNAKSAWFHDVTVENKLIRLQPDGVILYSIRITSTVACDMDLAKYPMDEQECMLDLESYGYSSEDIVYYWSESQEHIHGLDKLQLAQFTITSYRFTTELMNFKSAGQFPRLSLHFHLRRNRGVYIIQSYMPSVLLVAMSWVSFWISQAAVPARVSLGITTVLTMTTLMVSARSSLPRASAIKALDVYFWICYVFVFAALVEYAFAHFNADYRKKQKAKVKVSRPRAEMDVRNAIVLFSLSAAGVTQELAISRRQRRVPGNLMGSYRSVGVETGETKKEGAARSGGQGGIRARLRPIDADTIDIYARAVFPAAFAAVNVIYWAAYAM

Row | Structure (SMILES) | IC50 [1] [nM] | EC50 [2] [nM] | α1β2γ2 EMAX [2] | EC50 [3] [nM] | α4β3δ EMAX [3]
1 | C[C@@H](Cn1cc(C#N)cn1)[C@H]1CC[C@H]2[C@@H]3CC[C@@H]4C[C@@](O)(CC5CC5)CC[C@@H]4[C@H]3CC[C@]12C [Example 303, 1-((R)-2-((3S,5R,8R,9R,10S,13S,14S,17R)-3-(cyclopropylmethyl)-3-hydroxy-13-methylhexadecahydro-1H-cyclopenta[a]phenanthren-17-yl)propyl)-1H-pyrazole-4-carbonitrile] | < 100 | < 200 | C (C indicates an Emax response ≥10) | < 200 | B (B indicates an Emax response 30 to <45)
2 | CCCC[C@@]1(O)CC[C@H]2[C@H](CC[C@@H]3[C@@H]2CC[C@]2(C)[C@@H]([C@@H](C)Cn4cc(C#N)cn4)CC[C@@H]32)C1 [Example 311, 1-((R)-2-((3R,5R,8R,9R,10S,13S,14S,17R)-3-butyl-3-hydroxy-13-methylhexadecahydro-1H-cyclopenta[a]phenanthren-17-yl)propyl)-1H-pyrazole-4-carbonitrile] | < 100 | < 200 | C (C indicates an Emax response ≥10) | 200 to 1000 | B (B indicates an Emax response 30 to <45)
3 | CCC[C@@]1(O)CC[C@@]2(COC)[C@H](CC[C@H]3[C@@H]4CC[C@H]([C@H](C)Cn5nnc(C)n5)[C@@]4(C)CC[C@@H]32)C1 [Example 320, (3R,5R,8S,9S,10R,13S,14S,17R)-10-(methoxymethyl)-13-methyl-17-((S)-1-(5-methyl-2H-tetrazol-2-yl)propan-2-yl)-3-propylhexadecahydro-1H-cyclopenta[a]phenanthren-3-ol] | < 100 | 200 to 1000 | B (B indicates an Emax response 8 to <10) | 200 to 1000 | C (C indicates an Emax response ≥45)
4 | CCC[C@@]1(O)CC[C@H]2[C@H](CC[C@@H]3[C@@H]2CC[C@]2(C)[C@@H]([C@H](C)Cn4nnnc4C)CC[C@@H]32)C1 [Example 323, (3R,5R,8R,9R,10S,13S,14S,17R)-13-methyl-17-(1-(5-methyl-1H-tetrazol-1-yl)propan-2-yl)-3-propylhexadecahydro-1H-cyclopenta[a]phenanthren-3-ol] | < 100 | < 200 | C (C indicates an Emax response ≥10) | 200 to 1000 | B (B indicates an Emax response 30 to <45)
5 | CCC[C@@]1(O)CC[C@H]2[C@@H](CC[C@@H]3[C@@H]2CC[C@]2(C)[C@@H]([C@@H](C)Cn4nnnc4C)CC[C@@H]32)C1 [Example 332, (3R,5S,8R,9R,10S,13S,14S,17R)-13-methyl-17-((R)-1-(5-methyl-1H-tetrazol-1-yl)propan-2-yl)-3-propylhexadecahydro-1H-cyclopenta[a]phenanthren-3-ol] | 100 to 1000 | < 200 | A (A indicates an Emax response <8) | 200 to 1000 | A (A indicates an Emax response <30)
6 | C[C@@H](Cn1cc(C#N)cn1)[C@H]1CC[C@H]2[C@@H]3CC[C@@H]4C[C@@](O)(C5CC5)CC[C@@H]4[C@H]3CC[C@]12C [Example 341, 1-((R)-2-((3R,5R,8R,9R,10S,13S,14S,17R)-3-cyclopropyl-3-hydroxy-13-methylhexadecahydro-1H-cyclopenta[a]phenanthren-17-yl)propyl)-1H-pyrazole-4-carbonitrile] | < 100 | < 200 | A (A indicates an Emax response <8) | < 200 | A (A indicates an Emax response <30)
7 | CCOC[C@@]1(O)CC[C@H]2[C@H](CC[C@@H]3[C@@H]2CC[C@]2(C)[C@@H]([C@H](Cn4cc(C#N)cn4)C(F)(F)F)CC[C@@H]32)C1 [Example 357, 1-((R)-2-((3R,5R,8R,9R,10S,13S,14S,17R)-3-(ethoxymethyl)-3-hydroxy-13-methylhexadecahydro-1H-cyclopenta[a]phenanthren-17-yl)-3,3,3-trifluoropropyl)-1H-pyrazole-4-carbonitrile] | 100 to 1000 | 200 to 1000 | B (B indicates an Emax response 8 to <10) | 200 to 1000 | B (B indicates an Emax response 30 to <45)
8 | CCOC[C@@]1(O)CC[C@H]2[C@H](CC[C@@H]3[C@@H]2CC[C@]2(C)[C@@H]([C@H](Cn4nnc(C)n4)C(F)(F)F)CC[C@@H]32)C1 [Example 358, (3R,5R,8R,9R,10S,13S,14S,17R)-3-(ethoxymethyl)-13-methyl-17-((R)-1,1,1-trifluoro-3-(5-methyl-2H-tetrazol-2-yl)propan-2-yl)hexadecahydro-1H-cyclopenta[a]phenanthren-3-ol] | 100 to 1000 | ≥ 1000 | A (A indicates an Emax response <8) | ≥ 1000 | B (B indicates an Emax response 30 to <45)
9 | CCC[C@@]1(O)CC[C@H]2[C@H](CC[C@@H]3[C@@H]2CC[C@]2(C)[C@@H]([C@@H](C)Cc4ccc(C#N)nc4)CC[C@@H]32)C1 [Example 401, 5-((S)-2-((3R,5R,8R,9R,10S,13R,14S,17R)-3-hydroxy-13-methyl-3-propylhexadecahydro-1H-cyclopenta[a]phenanthren-17-yl)propyl)picolinonitrile] | < 100 | ≥ 1000 | C (C indicates an Emax response ≥10) | ≥ 1000 | A (A indicates an Emax response <30)
10 | COC[C@@]1(O)CC[C@H]2[C@H](CC[C@@H]3[C@@H]2CC[C@]2(C)[C@@H]([C@H](C)Cc4ccc(C#N)nc4)CC[C@@H]32)C1 [Example 405, 5-((R)-2-((3R,5R,8R,9R,10S,13R,14S,17R)-3-hydroxy-3-(methoxymethyl)-13-methylhexadecahydro-1H-cyclopenta[a]phenanthren-17-yl)propyl)picolinonitrile] | < 100 | ≥ 1000 | C (C indicates an Emax response ≥10) | < 200 | B (B indicates an Emax response 30 to <45)
11 | C[C@H](Cc1cncc(C#N)c1)[C@H]1CC[C@H]2[C@@H]3CC[C@@H]4C[C@](C)(O)CC[C@@H]4[C@H]3CC[C@]12C [Example 406, 5-((R)-2-((3R,5R,8R,9R,10S,13R,14S,17R)-3-hydroxy-3,13-dimethylhexadecahydro-1H-cyclopenta[a]phenanthren-17-yl)propyl)nicotinonitrile] | < 100 | < 200 | A (A indicates an Emax response <8) | < 200 | B (B indicates an Emax response 30 to <45)
12 | C[C@@H](Cc1cncc(C#N)c1)[C@H]1CC[C@H]2[C@@H]3CC[C@@H]4C[C@](C)(O)CC[C@@H]4[C@H]3CC[C@]12C [Example 407, 5-((S)-2-((3R,5R,8R,9R,10S,13R,14S,17R)-3-hydroxy-3,13-dimethylhexadecahydro-1H-cyclopenta[a]phenanthren-17-yl)propyl)nicotinonitrile] | < 100 | < 200 | C (C indicates an Emax response ≥10) | ≥ 1000 | C (C indicates an Emax response ≥45)
13 | CCOC[C@@]1(O)CC[C@H]2[C@H](CC[C@@H]3[C@@H]2CC[C@]2(C)[C@@H]([C@@H](C)Cc4cccc(C#N)n4)CC[C@@H]32)C1 [Example 413] | < 100 | < 200 | C (C indicates an Emax response ≥10) | < 200 | B (B indicates an Emax response 30 to <45)
14 | Cc1cnc(C[C@H](C)[C@H]2CC[C@H]3[C@@H]4CC[C@@H]5C[C@](C)(O)CC[C@@H]5[C@H]4CC[C@]23C)s1 [Example 430] | 100 to 1000 | 200 to 1000 | B (B indicates an Emax response 8 to <10) | < 200 | A (A indicates an Emax response <30)
